Reference: PubChem BioAssay AID1918999 (Molecular Pharmacology Branch, DTP, NCI, 2023)

System: 556581-035-R-J1-PDC complex spheroid growth
Assay: Anticancer human tumor 556581-035-R-J1-PDC patient-derived ovarian carcinoma cell line growth inhibition [AhR]
Conditions: for IC50: curve of first compound; for viability, T/C: stronger effect = lower value
Method in brief: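 Complex tumor spheroids co-cultured with HUVEC and human MSC stroma; AhR antagonists tested in combination with standard-of-care and investigational agents. Top concentration at or near clinical Cmax (else 10 microM), half-log dilutions; growth expressed as percent test/control.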

[1] = second compound 0.1 µM, first compound 0.00949 µM
[2] = second compound 0.1 µM, first compound 0.03 µM
[3] = second compound 0.1 µM, first compound 0.0949 µM
[4] = second compound 0.1 µM, first compound 0.3 µM
[5] = second compound 0.316 µM, first compound 0.00949 µM
[6] = second compound 0.316 µM, first compound 0.03 µM
[7] = second compound 0.316 µM, first compound 0.0949 µM
[8] = second compound 0.316 µM, first compound 0.3 µM
[9] = second compound 1 µM, first compound 0.00949 µM
[10] = second compound 1 µM, first compound 0.03 µM
[11] = second compound 1 µM, first compound 0.0949 µM
[12] = second compound 1 µM, first compound 0.3 µM
[13] = second compound 3.16 µM, first compound 0.00949 µM
[14] = second compound 3.16 µM, first compound 0.03 µM
[15] = second compound 3.16 µM, first compound 0.0949 µM
[16] = second compound 3.16 µM, first compound 0.3 µM
[17] = second compound 10 µM, first compound 0.00949 µM
[18] = second compound 10 µM, first compound 0.03 µM
[19] = second compound 10 µM, first compound 0.0949 µM
[20] = second compound 10 µM, first compound 0.3 µM
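Throughout, for viability, T/C: compound exposure lasted 7 days; 100% = DMSO vehicle control growth.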

**Q.** What does the source list for `COc1ccc([C@@H](O)c2cc(-c3ncnc4cc(N5CCOCC5)ccc34)c(F)cc2Cl)nn1` + Cc1cncc(-c2nc(NCCc3c[nH]c4ccccc34)c3ncn(C(C)C)c3n2)c1?
**A.** IC50 (second compound 0.1 µM): 3.12 µM; IC50 (second compound 0.316 µM): 7.28 µM; IC50 (second compound 1 µM): 4.2 µM; IC50 (second compound 3.16 µM): 6.93 µM; IC50 (second compound 10 µM): 9.85 µM; viability, T/C (second compound 0.1 µM, first compound 0.0316 µM): 113%; viability, T/C (second compound 0.1 µM, first compound 0.1 µM): 114%; viability, T/C (second compound 0.1 µM, first compound 0.316 µM): 108%; viability, T/C (second compound 0.1 µM, first compound 1 µM): 72.2%; viability, T/C (second compound 0.1 µM, first compound 3.16 µM): 51.4%; viability, T/C (second compound 0.1 µM, first compound 10 µM): 45.6%; viability, T/C (second compound 0.316 µM, first compound 0.0316 µM): 110%; viability, T/C (second compound 0.316 µM, first compound 0.1 µM): 105%; viability, T/C (second compound 0.316 µM, first compound 0.316 µM): 102%; viability, T/C (second compound 0.316 µM, first compound 1 µM): 77.8%; viability, T/C (second compound 0.316 µM, first compound 3.16 µM): 60.8%; viability, T/C (second compound 0.316 µM, first compound 10 µM): 45.8%; viability, T/C (second compound 1 µM, first compound 0.0316 µM): 111%; viability, T/C (second compound 1 µM, first compound 0.1 µM): 112%; viability, T/C (second compound 1 µM, first compound 0.316 µM): 116%; viability, T/C (second compound 1 µM, first compound 1 µM): 87.9%; viability, T/C (second compound 1 µM, first compound 3.16 µM): 53.8%; viability, T/C (second compound 1 µM, first compound 10 µM): 42.5%; viability, T/C (second compound 3.16 µM, first compound 0.0316 µM): 103%; viability, T/C (second compound 3.16 µM, first compound 0.1 µM): 113%; viability, T/C (second compound 3.16 µM, first compound 0.316 µM): 88.5%; viability, T/C (second compound 3.16 µM, first compound 1 µM): 82.6%; viability, T/C (second compound 3.16 µM, first compound 3.16 µM): 54.2%; viability, T/C (second compound 3.16 µM, first compound 10 µM): 47.8%; viability, T/C (second compound 10 µM, first compound 0.0316 µM): 82.2%; viability, T/C (second compound 10 µM, first compound 0.1 µM): 85.7%; viability, T/C (second compound 10 µM, first compound 0.316 µM): 89.1%; viability, T/C (second compound 10 µM, first compound 1 µM): 74.8%; viability, T/C (second compound 10 µM, first compound 3.16 µM): 61.5%; viability, T/C (second compound 10 µM, first compound 10 µM): 49.5%

**Q.** How did the IC50 (second compound 0.1 µM) turn out when `Nc1ncn(C2CC(O)C(CO)S2)c(=O)n1` (stereo not given) + Cc1cncc(-c2nc(NCCc3c[nH]c4ccccc34)c3ncn(C(C)C)c3n2)c1 was run?
**A.** > 0.3 µM

**Q.** And the IC50 (second compound 0.316 µM)?
**A.** > 0.3 µM

**Q.** What about the IC50 (second compound 1 µM) of the same compound?
**A.** > 0.3 µM

**Q.** And the IC50 (second compound 3.16 µM)?
**A.** > 0.3 µM

**Q.** What about the IC50 (second compound 10 µM) of the same compound?
**A.** > 0.3 µM

**Q.** What about the viability, T/C (second compound 0.1 µM, first compound 0.000949 µM) of the same compound?
**A.** 99.3%

**Q.** What about the viability, T/C (second compound 0.1 µM, first compound 0.003 µM) of the same compound?
**A.** 102%

**Q.** What about the viability, T/C [1] of the same compound?
**A.** 88.9%

**Q.** What about the viability, T/C [2] of the same compound?
**A.** 93.8%

**Q.** And the viability, T/C [3]?
**A.** 82%

**Q.** What about the viability, T/C [4] of the same compound?
**A.** 67.3%

**Q.** And the viability, T/C (second compound 0.316 µM, first compound 0.000949 µM)?
**A.** 113%

**Q.** And the viability, T/C (second compound 0.316 µM, first compound 0.003 µM)?
**A.** 109%

**Q.** What about the viability, T/C [5] of the same compound?
**A.** 111%

**Q.** What about the viability, T/C [6] of the same compound?
**A.** 93.2%

**Q.** And the viability, T/C [7]?
**A.** 81%

**Q.** What about the viability, T/C [8] of the same compound?
**A.** 68%

**Q.** And the viability, T/C (second compound 1 µM, first compound 0.000949 µM)?
**A.** 116%

**Q.** And the viability, T/C (second compound 1 µM, first compound 0.003 µM)?
**A.** 109%

**Q.** What about the viability, T/C [9] of the same compound?
**A.** 99.5%

**Q.** And the viability, T/C [10]?
**A.** 106%

**Q.** What about the viability, T/C [11] of the same compound?
**A.** 85.7%

**Q.** And the viability, T/C [12]?
**A.** 80.4%

**Q.** What about the viability, T/C (second compound 3.16 µM, first compound 0.000949 µM) of the same compound?
**A.** 87.7%

**Q.** What about the viability, T/C (second compound 3.16 µM, first compound 0.003 µM) of the same compound?
**A.** 84.8%

**Q.** What about the viability, T/C [13] of the same compound?
**A.** 95.8%

**Q.** And the viability, T/C [14]?
**A.** 94.3%

**Q.** What about the viability, T/C [15] of the same compound?
**A.** 79.5%

**Q.** And the viability, T/C [16]?
**A.** 72.9%

**Q.** And the viability, T/C (second compound 10 µM, first compound 0.000949 µM)?
**A.** 84.7%

**Q.** And the viability, T/C (second compound 10 µM, first compound 0.003 µM)?
**A.** 86.7%

**Q.** And the viability, T/C [17]?
**A.** 91.6%

**Q.** And the viability, T/C [18]?
**A.** 87.3%

**Q.** What about the viability, T/C [19] of the same compound?
**A.** 79.4%

**Q.** And the viability, T/C [20]?
**A.** 72.6%

**Q.** For `O=C(C=Cn1cnc(-c2cc(C(F)(F)F)cc(C(F)(F)F)c2)n1)NNc1cnccn1` + Cc1cncc(-c2nc(NCCc3c[nH]c4ccccc34)c3ncn(C(C)C)c3n2)c1, which IC50 (second compound 0.1 µM) is on record?
**A.** > 3 µM

**Q.** And the IC50 (second compound 0.316 µM)?
**A.** > 3 µM

**Q.** And the IC50 (second compound 1 µM)?
**A.** 1.86 µM

**Q.** And the IC50 (second compound 3.16 µM)?
**A.** > 3 µM

**Q.** And the IC50 (second compound 10 µM)?
**A.** > 3 µM

**Q.** What about the viability, T/C [1] of the same compound?
**A.** 94.2%

**Q.** And the viability, T/C [2]?
**A.** 99.9%

**Q.** What about the viability, T/C [3] of the same compound?
**A.** 95.5%

**Q.** What about the viability, T/C [4] of the same compound?
**A.** 85.9%

**Q.** And the viability, T/C (second compound 0.1 µM, first compound 0.949 µM)?
**A.** 70.8%

**Q.** What about the viability, T/C (second compound 0.1 µM, first compound 3 µM) of the same compound?
**A.** 56.3%

**Q.** What about the viability, T/C [5] of the same compound?
**A.** 85.5%

**Q.** And the viability, T/C [6]?
**A.** 96.2%

**Q.** And the viability, T/C [7]?
**A.** 74.8%

**Q.** What about the viability, T/C [8] of the same compound?
**A.** 73.8%

**Q.** What about the viability, T/C (second compound 0.316 µM, first compound 0.949 µM) of the same compound?
**A.** 62.6%

**Q.** What about the viability, T/C (second compound 0.316 µM, first compound 3 µM) of the same compound?
**A.** 50.1%

**Q.** And the viability, T/C [9]?
**A.** 93.9%

**Q.** And the viability, T/C [10]?
**A.** 94.8%

**Q.** What about the viability, T/C [11] of the same compound?
**A.** 87.5%

**Q.** What about the viability, T/C [12] of the same compound?
**A.** 78.2%

**Q.** And the viability, T/C (second compound 1 µM, first compound 0.949 µM)?
**A.** 65.4%

**Q.** What about the viability, T/C (second compound 1 µM, first compound 3 µM) of the same compound?
**A.** 39.4%

**Q.** And the viability, T/C [13]?
**A.** 92.8%

**Q.** And the viability, T/C [14]?
**A.** 97.1%

**Q.** And the viability, T/C [15]?
**A.** 95.9%

**Q.** What about the viability, T/C [16] of the same compound?
**A.** 74.8%

**Q.** What about the viability, T/C (second compound 3.16 µM, first compound 0.949 µM) of the same compound?
**A.** 57.3%

**Q.** What about the viability, T/C (second compound 3.16 µM, first compound 3 µM) of the same compound?
**A.** 50.4%

**Q.** And the viability, T/C [17]?
**A.** 81.6%

**Q.** What about the viability, T/C [18] of the same compound?
**A.** 84.6%

**Q.** What about the viability, T/C [19] of the same compound?
**A.** 73.9%

**Q.** What about the viability, T/C [20] of the same compound?
**A.** 72.7%

**Q.** What about the viability, T/C (second compound 10 µM, first compound 0.949 µM) of the same compound?
**A.** 64.8%

**Q.** And the viability, T/C (second compound 10 µM, first compound 3 µM)?
**A.** 68.9%
